Source: ChEMBL document CHEMBL4483862, “Open-source discovery of chemical leads for next-generation chemoprotective antimalarials” (2018)

Tested on: Plasmodium berghei
Experiment: Luciferase/luciferin-expressing antifolate-resistant parasites were used to infect a culture of HepG2 cells that were pre-incubated with compounds. Infected hepatocytes emit light due to the luciferase reaction. Assay results are presented as the percent inhibition of light emission compared to control. […]
Assay type: functional
Details: sporozoite; for IC90: read-out: LUCIFERASE INFECTION ASSAY - IC90
[1] = read-out: LUCIFERASE INFECTION ASSAY - IC50

CN(C)c1ccc(/C=C(\C#N)C(=O)c2ccc(-n3nncc3C34CC5CC(CC(C5)C3)C4)cc2)cc1
IC50 (FFLUC_HILL_SLOPE 2.12, FFLUC_R_SQUARED 0.418, PBLUC_HILL_SLOPE 11.3, PBLUC_R_SQUARED 0.267, read-out: LUCIFERASE INFECTION ASSAY - IC50): > 10 µM
IC90: > 10 µM

COc1ccc(-c2cnc3cnc(-c4ccsc4)cn23)cn1
IC50 (PBLUC_HILL_SLOPE 12.3, PBLUC_R_SQUARED 0.383, read-out: LUCIFERASE INFECTION ASSAY - IC50): 8.12 µM
IC90: 9.71 µM

CSc1ccc(/C=C2\SC(=O)N(CCNC(=O)c3nc4nccc(C)n4n3)C2=O)cc1
IC50 [1]: > 10 µM
IC90: > 10 µM

CCCNC(=O)c1c(NC(=O)c2ccc(CC)cc2)nc2ccc(C)cn12
IC50 (HEPG2TOX_HILL_SLOPE 14.6, HEPG2TOX_R_SQUARED 0.266, PBLUC_HILL_SLOPE 22.2, PBLUC_R_SQUARED 0.534, read-out: LUCIFERASE INFECTION ASSAY - IC50): 2.92 µM
IC90: 3.22 µM

Cc1noc(C)c1-c1nccc2n[nH]c(-c3ccccc3)c12
IC50 (PBLUC_HILL_SLOPE 15.1, PBLUC_R_SQUARED 0.272, read-out: LUCIFERASE INFECTION ASSAY - IC50): 9.26 µM
IC90: > 10 µM

CCOC(=O)c1c(C)[nH]c(C(=O)OCC(=O)NC23CC4CC(CC(C4)C2)C3)c1C
IC50 [1]: > 10 µM
IC90: > 10 µM

COc1ccc(-c2cc3c(n(C)c2=O)CCN(C(=O)C(C)n2nc(C)cc2C)C3)c2ccc(C)nc12 (stereo unspecified)
IC50 [1]: > 6.8 µM
IC90: > 6.8 µM

O=C(Nc1cccc(SC(F)(F)C(F)(F)C(F)(F)F)c1)C1(S(=O)(=O)c2ccccc2)CC1
IC50 [1]: > 10 µM
IC90: > 10 µM

COc1cccc(NC(=O)N2CCc3nc(Nc4ccc(C(C)C)cc4)ncc3C2)c1
IC50 (PBLUC_HILL_SLOPE 3.71, PBLUC_R_SQUARED 0.181, read-out: LUCIFERASE INFECTION ASSAY - IC50): 6.78 µM
IC90: > 7.9 µM

CCOc1ccc(C(=O)COC(=O)c2c3ccccc3cc3ccccc23)cc1
IC50 [1]: > 10 µM
IC90: > 10 µM

O=C(Nc1ccc(S(=O)(=O)N2CCCC2)cc1)c1cc([N+](=O)[O-])ccc1Sc1nnnn1-c1ccccc1
IC50 (FFLUC_HILL_SLOPE 8.42, FFLUC_R_SQUARED 0.732, read-out: LUCIFERASE INFECTION ASSAY - IC50): > 10 µM
IC90: > 10 µM

CN(C)S(=O)(=O)c1cccc(COC(=O)C2(c3ccc(F)cc3)CCCC2)c1
IC50 (PBLUC_HILL_SLOPE 13, PBLUC_R_SQUARED 0.517, read-out: LUCIFERASE INFECTION ASSAY - IC50): 8.83 µM
IC90: > 10 µM

COc1ccc(-c2cnc3cnc(-c4cccnc4)cn23)cc1
IC50 (PBLUC_HILL_SLOPE 2.13, PBLUC_R_SQUARED 0.733, read-out: LUCIFERASE INFECTION ASSAY - IC50): 1.7 µM
IC90: 4.75 µM

CC(C)(C)c1cc(C(=O)Nc2cc(-c3cccs3)nn2-c2ccc(F)cc2)n(Cc2ccccc2)n1
IC50 (HEPG2TOX_HILL_SLOPE 6.06, HEPG2TOX_R_SQUARED 0.212, read-out: LUCIFERASE INFECTION ASSAY - IC50): > 6.61 µM
IC90: > 6.61 µM

O=C(Nc1nc2c(s1)CCCC2)c1cc(F)c(F)c(F)c1F
IC50 [1]: 0.081 µM
IC90: 0.624 µM

N#Cc1ccsc1NC(=O)c1ccc(Cl)c([N+](=O)[O-])c1
IC50 [1]: > 10 µM
IC90: > 10 µM

O=C(Nc1nc(-c2c[nH]c3ccccc23)cs1)c1coc(Br)c1
IC50 [1]: > 10 µM
IC90: > 10 µM

Cc1ccc(-c2nc(NC(=O)c3ccn(C)c(=O)c3)sc2-c2ccc(C)cc2)cc1
IC50 (HEPG2TOX_HILL_SLOPE 6.56, HEPG2TOX_R_SQUARED 0.678, PBLUC_HILL_SLOPE 73.6, 3.22, PBLUC_R_SQUARED 0.772, 0.348, read-out: LUCIFERASE INFECTION ASSAY - IC50): 3.76 µM
IC90: 5.86 µM

CCN(CC)c1ccc(/C=N/Nc2ccc(C)cc2C)c(O)c1
IC50 (FFLUC_HILL_SLOPE 17.2, FFLUC_R_SQUARED 0.349, PBLUC_HILL_SLOPE 3.28, PBLUC_R_SQUARED 0.115, read-out: LUCIFERASE INFECTION ASSAY - IC50): 5.38 µM
IC90: > 10 µM

CCN1CCC(Nc2cnc3c(c2)c(NC(=O)Cc2ccccc2)c(C(=O)OC)n3CC(C)C)CC1
IC50 [1]: 5.59 µM
IC90: > 6.71 µM

O=C(Nc1ccccc1)Nc1cccc(Cl)c1
IC50 [1]: > 13.4 µM
IC90: > 13.4 µM

CCn1c2ccccc2c2cc(Nc3cc(-c4ccc(O)cc4)ncn3)ccc21
IC50 [1]: 2.24 µM
IC90: 5.79 µM

O=C(c1cncn1-c1ccccc1)N1CC=C(c2ccccc2)CC1
IC50 (HEPG2TOX_HILL_SLOPE 2.04, HEPG2TOX_R_SQUARED 0.78, PBLUC_HILL_SLOPE 1.11, PBLUC_R_SQUARED 0.463, read-out: LUCIFERASE INFECTION ASSAY - IC50): 4.38 µM
IC90: > 10 µM

Fc1ccc(-c2cnn3c(NCCCN4CCOCC4)ccnc23)cc1Cl
IC50 (PBLUC_HILL_SLOPE 1.9, PBLUC_R_SQUARED 0.489, read-out: LUCIFERASE INFECTION ASSAY - IC50): 4.05 µM
IC90: > 8.46 µM

COc1ccc(/C=C2\CCCC3C2=NN(C(=O)CSc2ccccn2)C3c2ccc(OC)cc2)cc1 (stereo unspecified)
IC50 (PBLUC_HILL_SLOPE 1.58, PBLUC_R_SQUARED 0.267, read-out: LUCIFERASE INFECTION ASSAY - IC50): 2.44 µM
IC90: 9.76 µM

COc1ccc(Cl)cc1C(=O)NCCC(c1ccccc1)c1ccccc1
IC50 (HEPG2TOX_HILL_SLOPE 6.56, HEPG2TOX_R_SQUARED 0.368, PBLUC_HILL_SLOPE 3.72, PBLUC_R_SQUARED 0.314, read-out: LUCIFERASE INFECTION ASSAY - IC50): 5.39 µM
IC90: > 8.69 µM

CCCNc1nc(-c2ccc(OC)cc2)c(-c2ccc(OC)cc2)s1
IC50 (PBLUC_HILL_SLOPE 15.7, PBLUC_R_SQUARED 0.0413, read-out: LUCIFERASE INFECTION ASSAY - IC50): 9.99 µM
IC90: > 10 µM

Cc1cc(C(=O)C(C)Sc2ncnc3sc(-c4ccccc4)cc23)c(C)n1-c1ccc(OC(F)F)cc1 (stereo unspecified)
IC50 (FFLUC_HILL_SLOPE 3.01, FFLUC_R_SQUARED 0.199, HEPG2TOX_HILL_SLOPE 3.15, HEPG2TOX_R_SQUARED 0.925, PBLUC_HILL_SLOPE 3.1, PBLUC_R_SQUARED 0.165, read-out: LUCIFERASE INFECTION ASSAY - IC50): 7.04 µM
IC90: > 10 µM

COc1cc(C2CC(=O)c3cn[nH]c3C2)cc(OC)c1OC (stereo unspecified)
IC50 (HEPG2TOX_HILL_SLOPE 1.57, HEPG2TOX_R_SQUARED 0.775, PBLUC_HILL_SLOPE 1.9, PBLUC_R_SQUARED 0.199, read-out: LUCIFERASE INFECTION ASSAY - IC50): 5.83 µM
IC90: > 10.9 µM

CCOC(=O)c1cc(Sc2ccccc2NC(=O)Nc2ccc(C)cc2)cc(C(=O)OCC)n1
IC50 [1]: > 6.88 µM
IC90: > 6.88 µM

Cc1cccc(-c2cc(C(=O)Nc3cccc(Cl)c3)[nH]n2)c1O
IC50 (HEPG2TOX_HILL_SLOPE 6.46, HEPG2TOX_R_SQUARED 0.463, PBLUC_HILL_SLOPE 41.9, PBLUC_R_SQUARED 0.193, read-out: LUCIFERASE INFECTION ASSAY - IC50): 9.38 µM
IC90: 9.89 µM

CC(=O)Nc1ncc2c(Cl)cccc2n1
IC50 (HEPG2TOX_HILL_SLOPE 2.36, HEPG2TOX_R_SQUARED 0.885, PBLUC_HILL_SLOPE 2.93, PBLUC_R_SQUARED 0.162, read-out: LUCIFERASE INFECTION ASSAY - IC50): 7.84 µM
IC90: > 14.9 µM

Cc1ccc(S(=O)(=O)/N=C2\C=C(NS(=O)(=O)c3ccc(C)cc3)C(=O)c3ccccc32)cc1
IC50 (PBLUC_HILL_SLOPE 2.17, PBLUC_R_SQUARED 0.652, read-out: LUCIFERASE INFECTION ASSAY - IC50): 5.51 µM
IC90: > 10 µM

CCOC(=O)c1c(NC(=O)C(C)OC(=O)c2ccccc2Sc2ccccc2C#N)sc2c1CCCC2 (stereo unspecified)
IC50 [1]: > 10 µM
IC90: > 10 µM

CCCCc1[nH]nc2ccnc(-c3ccc(OC)c(OC)c3)c12
IC50 [1]: 0.979 µM
IC90: 1.3 µM

COc1ccc2c(-c3sc(Nc4ccc(C(C)C)cc4)c(-c4nc5ccccc5s4)c3N)cc(=O)oc2c1
IC50 (HEPG2TOX_HILL_SLOPE 1.27, HEPG2TOX_R_SQUARED 0.95, PBLUC_HILL_SLOPE 4.32, PBLUC_R_SQUARED 0.419, read-out: LUCIFERASE INFECTION ASSAY - IC50): 1.76 µM
IC90: 2.94 µM

Cc1noc(/C=C/c2cc(C(F)(F)F)cc(C(F)(F)F)c2)c1[N+](=O)[O-]
IC50 [1]: > 9.01 µM
IC90: > 9.01 µM

O=C(NCC(c1ccco1)N1CCCC1)c1ccc(Cl)c(S(=O)(=O)N2CCc3ccccc32)c1 (stereo unspecified)
IC50 (FFLUC_HILL_SLOPE 10.9, FFLUC_R_SQUARED 0.158, HEPG2TOX_HILL_SLOPE 3.24, HEPG2TOX_R_SQUARED 0.613, PBLUC_HILL_SLOPE 5.35, PBLUC_R_SQUARED 0.563, read-out: LUCIFERASE INFECTION ASSAY - IC50): 7.08 µM
IC90: > 10 µM

CN(C)S(=O)(=O)c1ccc(CNc2ccnc3cc(Cl)ccc23)s1
IC50 (PBLUC_HILL_SLOPE 38.6, PBLUC_R_SQUARED 0.0785, read-out: LUCIFERASE INFECTION ASSAY - IC50): 3.4 µM
IC90: 3.6 µM

Cc1cc(=O)n(-c2ccc(C(F)(F)F)cc2[N+](=O)[O-])[nH]1
IC50 [1]: > 10 µM
IC90: > 10 µM

CCOC(=O)c1c(N2C(=O)C=CC2=O)sc2c1CCCC2
IC50 (FFLUC_HILL_SLOPE 2.83, FFLUC_R_SQUARED 0.0392, read-out: LUCIFERASE INFECTION ASSAY - IC50): > 10.8 µM
IC90: > 10.8 µM

O=c1c(Cl)c(Cl)cnn1-c1ccc(C(F)(F)F)cc1
IC50 (FFLUC_HILL_SLOPE 1.51, FFLUC_R_SQUARED 0.59, HEPG2TOX_HILL_SLOPE 2.35, HEPG2TOX_R_SQUARED 0.929, PBLUC_HILL_SLOPE 2.87, PBLUC_R_SQUARED 0.611, read-out: LUCIFERASE INFECTION ASSAY - IC50): 2.33 µM
IC90: 5 µM

CN1CCN(C(=O)c2cccc(-c3cnc4cnc(-c5ccccc5Oc5ccccc5)cn34)c2)CC1
IC50 (PBLUC_HILL_SLOPE 3.72, PBLUC_R_SQUARED 0.499, read-out: LUCIFERASE INFECTION ASSAY - IC50): 3.93 µM
IC90: > 6.74 µM
